Experiments:
BTK = target: T1, BTK (Homo sapiens, UniProt Q06187); experiment: Cell Degradation: BTK degradation in TMD-8 cells, HTRF assay; format: cell-based; conditions: 6 h treatment, IC50 (DC50) of BTK degradation
T1 construct: High control=Cell group with added DMSO and without compound, indicating microplate readings without BTK degradation; endogenous in cells; host or cells: TMD-8 cells
In short: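 BTK levels read by HTRF (665 vs 620 nm) in lysates of TMD-8 cells after 6 h compound exposure (eight doses, 6-fold steps, 0.2% DMSO). Percent degradation relative to controls; four-parameter curve fitting gave DC50, with Dmax the top degradation.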

HEK-293 cells = experiment: HEK-293 Cytotoxicity Assay (CellTiter-Glo); format: cell-based; conditions: Homo sapiens, HEK293, 72 h incubation, CellTiter-Glo luminescence
In short: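 Four-parameter fit of % inhibition gives IC50, from CellTiter-Glo luminescent viability read-out. Cells exposed for 72 h to an 8-point, 4-fold series at 0.2% DMSO.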

T1 sequence (Q06187 whole entry): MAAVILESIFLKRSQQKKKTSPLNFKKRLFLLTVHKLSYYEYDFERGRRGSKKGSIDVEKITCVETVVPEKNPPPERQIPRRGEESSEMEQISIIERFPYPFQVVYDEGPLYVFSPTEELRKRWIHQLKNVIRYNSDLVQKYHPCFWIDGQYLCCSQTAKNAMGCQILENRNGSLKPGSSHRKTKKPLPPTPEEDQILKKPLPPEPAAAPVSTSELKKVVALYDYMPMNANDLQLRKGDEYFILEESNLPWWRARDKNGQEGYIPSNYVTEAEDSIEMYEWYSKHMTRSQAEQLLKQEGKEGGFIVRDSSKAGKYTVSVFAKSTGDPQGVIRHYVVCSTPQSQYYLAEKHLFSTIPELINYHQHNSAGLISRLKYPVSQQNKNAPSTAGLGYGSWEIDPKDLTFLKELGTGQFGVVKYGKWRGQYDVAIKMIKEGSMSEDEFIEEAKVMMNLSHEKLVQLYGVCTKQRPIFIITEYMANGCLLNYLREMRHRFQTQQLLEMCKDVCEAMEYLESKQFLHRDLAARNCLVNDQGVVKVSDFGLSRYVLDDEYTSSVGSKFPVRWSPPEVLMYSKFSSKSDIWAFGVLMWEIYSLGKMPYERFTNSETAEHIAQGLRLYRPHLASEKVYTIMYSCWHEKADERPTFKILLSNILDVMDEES

SMILES | DC50 (BTK) [nM] | IC50 (HEK-293 cells) [nM]
Cc1nn(C2CCN(CC3CCN(c4ccc(N5CCC(=O)NC5=O)cc4)CC3)CC2)c(C)c1-c1cc2c(-c3cc(CO)c([C@@H](C)NC(=O)c4nc(C(C)(C)C)no4)cc3F)ncnc2[nH]1 [Example 139, (R)-3-(tert-butyl)-N-(1-(4-(6-(1-(1-((1-(4-(2,4-dioxotetrahydropyrimidin-1(2H)-yl)phenyl)piperidin-4-yl)methyl)piperidin-4-yl)-3,5-dimethyl-1H-pyrazol-4-yl)-7H-pyrrolo[2,3-d]pyrimidin-4-yl)-5-fluoro-2-(hydroxymethyl)phenyl)ethyl)-1,2,4-oxadiazole-5-carboxamide] | 0.5 | > 10000
Cc1c([C@@H](C)NC(=O)c2noc(C(C)(C)C)n2)ccc(-c2ncnc3[nH]c(-c4ccc(N5CCN(CC6CCN(c7ccc(N8CCC(=O)NC8=O)cc7)CC6)CC5)nc4)cc23)c1F [Example 140, (R)-5-(tert-butyl)-N-(1-(4-(6-(6-(4-((1-(4-(2,4-dioxotetrahydropyrimidin-1(2H)-yl)phenyl)piperidin-4-yl)methyl)piperazin-1-yl)pyridin-3-yl)-7H-pyrrolo[2,3-d]pyrimidin-4-yl)-3-fluoro-2-methylphenyl)ethyl)-1,2,4-oxadiazole-3-carboxamide] | 1.24 | > 10000
Cc1cc(-c2ncnc3[nH]c(-c4ccc(N5CCN(CC6CCN(c7ccc(N8CCC(=O)NC8=O)cc7)CC6)CC5)nc4)c(F)c23)ccc1[C@@H](C)NC(=O)c1nc(C(C)(C)C)no1 [Example 142, (R)-3-(tert-butyl)-N-(1-(4-(6-(6-(4-((1-(4-(2,4-dioxotetrahydropyrimidin-1(2H)-yl)phenyl)piperidin-4-yl)methyl)piperazin-1-yl)pyridin-3-yl)-5-fluoro-7H-pyrrolo[2,3-d]pyrimidin-4-yl)-2-methylphenyl)ethyl)-1,2,4-oxadiazole-5-carboxamide] | 2.99 | > 10000
C[C@@H](NC(=O)c1noc(C(C)(C)C)n1)c1ccc(-c2ncnc3[nH]c(-c4ccc(N5CCN(CC6CCN(c7ccc(N8CCC(=O)NC8=O)cc7)CC6)CC5)nc4)cc23)cc1CO [Example 144, (R)-5-(tert-butyl)-N-(1-(4-(6-(6-(4-((1-(4-(2,4-dioxotetrahydropyrimidin-1(2H)-yl)phenyl)piperidin-4-yl)methyl)piperazin-1-yl)pyridin-3-yl)-7H-pyrrolo[2,3-d]pyrimidin-4-yl)-2-(hydroxymethyl)phenyl)ethyl)-1,2,4-oxadiazole-3-carboxamide] | 0.26 | > 10000
Cc1cc(-c2ncnc3[nH]c(-c4ccc(N5CCN(CC6CCN(c7ccc(N8CCC(=O)N(C)C8=O)cc7)CC6)CC5)nc4)cc23)ccc1[C@@H](C)NC(=O)c1nc(C(C)(C)C)no1 [Example 146, (R)-3-(tert-butyl)-N-(1-(2-methyl-4-(6-(6-(4-((1-(4-(3-methyl-2,4-dioxotetrahydropyrimidin-1(2H)-yl)phenyl)piperidin-4-yl)methyl)piperazin-1-yl)pyridin-3-yl)-7H-pyrrolo[2,3-d]pyrimidin-4-yl)phenyl)ethyl)-1,2,4-oxadiazole-5-carboxamide] | > 2000 | > 10000
Cc1cc(-c2ncnc3[nH]c(-c4ccc(N5CCN(CC6CCN(c7ccc(N8CCC(=O)NC8=O)cc7)CC6)CC5)cn4)cc23)ccc1[C@H](C)NC(=O)c1nc(C(C)(C)C)no1 [Example 147, (S)-3-(tert-butyl)-N-(1-(4-(6-(5-(4-((1-(4-(2,4-dioxotetrahydropyrimidin-1(2H)-yl)phenyl)piperidin-4-yl)methyl)piperazin-1-yl)pyridin-2-yl)-7H-pyrrolo[2,3-d]pyrimidin-4-yl)-2-methylphenyl)ethyl)-1,2,4-oxadiazole-5-carboxamide] | 52.7 | > 10000
Cc1nn(C2CCN(CC3CCN(c4ccc(N5CCC(=O)NC5=O)cc4)CC3)CC2)c(C)c1-c1cc2c(-c3cc(CO)c([C@@H](C)NC(=O)c4noc(C(C)(C)C)n4)cc3F)ncnc2[nH]1 [Example 149, (R)-5-(tert-butyl)-N-(1-(4-(6-(1-(1-((1-(4-(2,4-dioxotetrahydropyrimidin-1(2H)-yl)phenyl)piperidin-4-yl)methyl)piperidin-4-yl)-3,5-dimethyl-1H-pyrazol-4-yl)-7H-pyrrolo[2,3-d]pyrimidin-4-yl)-5-fluoro-2-(hydroxymethyl)phenyl)ethyl)-1,2,4-oxadiazole-3-carboxamide] | 0.27 | > 10000

The remaining molecules from weak to strong by DC50 (BTK), led by results:

DC50 (BTK) [nM] | SMILES | IC50 (HEK-293 cells) [nM]
134 | Cc1cc(-c2ncnc3[nH]c(-c4ccc(N5CCN(CC6CCN(c7ccc(N8CCC(=O)NC8=O)cc7)CC6)CC5)nc4)cc23)ccc1[C@H](C)NC(=O)c1nc(C(C)(C)C)no1 [Example 148, (S)-3-(tert-butyl)-N-(1-(4-(6-(6-(4-((1-(4-(2,4-dioxotetrahydropyrimidin-1(2H)-yl)phenyl)piperidin-4-yl)methyl)piperazin-1-yl)pyridin-3-yl)-7H-pyrrolo[2,3-d]pyrimidin-4-yl)-2-methylphenyl)ethyl)-1,2,4-oxadiazole-5-carboxamide] | 278
8.42 | Cc1cc(-c2ncnc3[nH]c(-c4ccc(N5CCN(CC6CCN(c7ccc(C8CCC(=O)NC8=O)cc7)C6)CC5)cc4)cc23)ccc1[C@@H](C)NC(=O)c1nc(C(C)(C)C)no1 (stereo partly drawn) [Example 143, 3-(tert-butyl)-N-((1R)-1-(4-(6-(4-(4-((1-(4-(2,6-dioxopiperidin-3-yl)phenyl)pyrrolidin-3-yl)methyl)piperazin-1-yl)phenyl)-7H-pyrrolo[2,3-d]pyrimidin-4-yl)-2-methylphenyl)ethyl)-1,2,4-oxadiazole-5-carboxamide] | > 10000
1.23 | Cc1cc(N2CCC(CN3CCN(c4ccc(-c5cc6c(-c7ccc([C@@H](C)NC(=O)c8noc(C(C)(C)C)n8)c(C)c7F)ncnc6[nH]5)cn4)CC3)CC2)ccc1N1CCC(=O)NC1=O [Example 141, (R)-5-(tert-butyl)-N-(1-(4-(6-(6-(4-((1-(4-(2,4-dioxotetrahydropyrimidin-1(2H)-yl)-3-methylphenyl)piperidin-4-yl)methyl)piperazin-1-yl)pyridin-3-yl)-7H-pyrrolo[2,3-d]pyrimidin-4-yl)-3-fluoro-2-methylphenyl)ethyl)-1,2,4-oxadiazole-3-carboxamide] | > 10000
0.29 | Cc1nn(C2CCN(CC3CCN(c4ccc(N5CCC(=O)NC5=O)cc4)CC3)CC2)c(C)c1-c1cc2c(-c3ccc([C@@H](C)NC(=O)c4nc(C(C)(C)C)no4)c(CO)c3)ncnc2[nH]1 [Example 138, (R)-3-(tert-butyl)-N-(1-(4-(6-(1-(1-((1-(4-(2,4-dioxotetrahydropyrimidin-1(2H)-yl)phenyl)piperidin-4-yl)methyl)piperidin-4-yl)-3,5-dimethyl-1H-pyrazol-4-yl)-7H-pyrrolo[2,3-d]pyrimidin-4-yl)-2-(hydroxymethyl)phenyl)ethyl)-1,2,4-oxadiazole-5-carboxamide] | 1860
0.27 | Cc1cc(N2CCC(CN3CCN(c4ccc(-c5cc6c(-c7ccc([C@@H](C)NC(=O)c8noc(C(C)(C)C)n8)c(CO)c7)ncnc6[nH]5)cn4)CC3)CC2)ccc1N1CCC(=O)NC1=O [Example 145, (R)-5-(tert-butyl)-N-(1-(4-(6-(6-(4-((1-(4-(2,4-dioxotetrahydropyrimidin-1(2H)-yl)-3-methylphenyl)piperidin-4-yl)methyl)piperazin-1-yl)pyridin-3-yl)-7H-pyrrolo[2,3-d]pyrimidin-4-yl)-2-(hydroxymethyl)phenyl)ethyl)-1,2,4-oxadiazole-3-carboxamide] | > 10000

Source: patent publication US20230167118A1, “DEGRADATION OF BRUTON'S TYROSINE KINASE (BTK) BY CONJUGATION OF BTK INIDBITORS WITH E3 LIGASE LIGAND AND METHODS OF USE” (BEIGENE, LTD., priority 2020, published 2023)
